Earlier results on five substances are cited in paper PMC7618104, “The GLP-1 analogue, exendin-4, improves bone material properties and strength through a central relay in ovariectomized mice” (American journal of physiology. Endocrinology and metabolism, 2025).

Ends that are not written are not given here.

One series has as its system brain. The note with it: in vivo; cited from earlier work. The source says:
(§1) Taken altogether, these studies might support a brain entry through adsorptive transcytosis across brain endothelial cells. The l ...

A further series deals with CNS. The note with it: mouse, in vivo, iv; cited from earlier work.
Text: as §1

Series [1] relates to individuals in randomized clinical trials. The note with it: cited from earlier work. An excerpt: (§2) Previously, we and others have highlighted the beneficial role of several gut hormones on bone physiology ([5]). Among gut hormones, glucagon-like peptide-1 (GLP-1) was reported to be beneficial for bone strength. Indeed, animals with a genetic impairment of the GLP-1 receptor (GLP-1r) presented with reduced bone mass, deterioration of bone microarchitecture and alterations of bone material properties, especially enzymatic collagen crosslinking, that jeopardized bone strength ([6], [7]). In humans, GLP-1r gene polymorphisms have also been reported to impact bone mineral density and mass ([8]) ...

Series [2] has as its system streptozotocin-induced type 1 diabetes mellitus. The following applies: cited from earlier work.
For the next series, the system named is osteoblast cultures. The following applies: in vitro study; cited from earlier work. The source says: These observations formed the basis for investigating the potential utility of a GLP-1r agonist for the management of bone fragility. Ex-4 has already been administered subcutaneously in preclinical models of bone fragility, including the OVX model used in the present study. Previous studies have reported positive effects of Ex-4 that increased bone mineral density, trabecular microstructure and circulating calcitonin leve ...

A further series has as its system humans. The note with it: exogenous GLP-1, humans; cited from earlier work.
Text: as §2

For the substance semaglutide, the “brain entry after peripheral administration” value with brain was “reported to enter the brain parenchyma”.
With “[Ser8]GLP-1: radiolabeled [Ser8]GLP-1, a stable analogue of GLP-1 (HSEGTFTSDVSSYLEGQAAKEFIAWLVKGRG; also: radiolabeled; UniProt P01275 98-128, looked up, variant A8S)”, the “CNS access, inhibition by excess unlabeled peptide or exendin antagonist” value with CNS is recorded as “not inhibited by excess doses”.
lixisenatide: the “fracture in individuals affected by type 2 diabetes mellitus” value in series [1] is reported as “contribute to reduce fracture”.
For the substance liraglutide, the “bone resistance to fracture” value in series [2] is on record as “able to enhance bone resistance to fracture”. In addition, in series [1], the “fracture in individuals affected by type 2 diabetes mellitus” value is reported as “contribute to reduce fracture”. Besides, the “brain entry after peripheral administration” value with brain was “reported to enter the brain parenchyma”.
In the case of “glucagon-like peptide-1 (HAEGTFTSDVSSYLEGQAAKEFIAWLVKGR; ends and bridges not checked; UniProt P01275 98-127, looked up) [GLP-1, gut hormone]”, in the series with osteoblast cultures, the “collagen maturity in vitro” value is on record as “no direct positive effects of GLP-1 on collagen maturity”. In addition, the bone remodeling result with humans is “rapidly modulates bone remodeling”.
